This note sets out measurements from US7855076B2, “Use of discoidin domain receptor 1 (DDR1) and agents that affect the DDR1/collagen pathway” (The United States of America as represented by the …, priority 2002, dated 2010).

The test system of assay [1] is THP-1 cells. As to the kind of experiment: Cell migration assay, 24-well BioCoat Insert Chamber. Type of assay: cell-based, human. Conditions: parental, mock-infected and DDR1a-overexpressing THP-1 cells; MCP-1 10 ng/ml in outer wells, membrane only, 3 hours. The protocol: Migration of each cell type in response to medium (open column) or MCP-1 (closed column) was measured in the 24-well BioCoat Insert Chamber as described in Example 1 below. In FIG. 3A, results are shown from experiments where inner wells and outer wells were separated by a membrane only. Chambers were incubated at 37° C. for 3 hours. In FIG. 3B, results are shown from experiments where approximately 3 mm of collagen lattice was created above the membrane. Chambers were incubated at 37° C. for 8 hours. The number of migrated cells was counted in each 400× magnified field. The results were presented as migration index denoting the fold increase of cell migration over control (the number of migrated parental cells=1). Data are representative of three experiments with two independent clones overexpressing either DDR1, a or DDR1b.
The cell migration assay was performed by using the 24-well BioCoat Insert Chamber (Becton Dickinson, Bedford, Mass.). […] After a 3-hour incubation at 37° C., the numbers of cells that were adhering on the other side of the membrane and also had fallen into the outer wells were counted. […] After an 8-hour incubation at 37° C., the numbers of cells that were adhering on the other side of the membrane and also had fallen into the outer wells were counted. […]

Assay [2] has as its system THP-1 cells. As to the kind of experiment: Adherence of THP-1 cells to coated plates. Type of assay: cell-based, human. The conditions noted are these: plates coated with fibronectin; DDR1a- and DDR1b-overexpressing cells. The protocol: 5×10^5 cells/ml were cultured on either BSA (10 mg/ml)- or collagen (20 μg/ml) and BSA-coated plates for 30 (FIG. 2A) or 120 minutes (FIG. 2B) at 37° C. in a 5% CO2 humidified incubator. Normal mouse IgG or anti-β1 integrin blocking IgG was added to measure the effect of β1 integrin in the assay. The number of adherent cells in each 400× visual field was counted. The results are presented as means ±SE of four individual fields. Data are representative of three experiments with two independent clones overexpressing either DDR1a or DDR1b.
To determine the effects of collagen on the functions of DDR1a- and DDR1b-overexpressing THP-1 cells, the cells were incubated on collagen-coated plastic plates. Twenty-four-well plates were coated with 100 μl/well human collagen type I (20 μg/ml) overnight at 4° C., and then with 200 μl/well 10 mg/ml bovine serum albumin (BSA) for 1 hour at 37° C. Cells were plated at the cell density of 1×10^5 cells/ml to the coated wells and were incubated for 30 minutes at 37° C. in 5% CO2 humidified atmosphere. Nonadherent cells were removed by washing three times with PBS. Cells that remained on the coated surface were considered to be adherent, and the number of cells in each 400 field was counted. Results were presented as mean ±SE per 400 field.

In the case of “MCP-1: human recombinant monocyte chemoattractant protein-1”, the migration of cells entry in assay [1] is “increased two- to threefold”.

fibronectin [reference compound]: the “adherence or shape change” value in assay [2] is recorded as “no effect”.
